25 compounds from patent US20240317721A1, “PYRAZOLYL DERIVATIVES AS INHIBITORS OF THE KRAS MUTANT PROTEIN” (NOVARTIS AG, priority 2021, published 2024) can be followed below.

Structures are written as SMILES.

The assay concerns the target KRasG12C (M1-K169, biotinylated on the N-terminus) (Homo sapiens (Human), UniProt P01116, G12C). As to the kind of experiment: Covalent competition assay: scintillation proximity assay (SPA) quantifying covalent modification of KRASG12C. It is filed as binding. As to conditions: competition with radiolabeled covalent probe (Compound B/Compound A), 2 hours incubation, 10 nM KRasG12C. The method, boiled down: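 Scintillation proximity readout after streptavidin bead capture (30 min) of biotinylated KRasG12C(M1-K169):GDP, 10 nM final, which was covalently labelled over 2 h by 25 nM radio-probe plus 475 nM cold probe unless blocked by compound.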
As a reminder, the IC50 is the midpoint of a concentration-inhibition curve. As to `C=CC(=O)N1CC2(CC(n3nc(N4CCN(CCOC)CC4(C)C)c(-c4c(Cl)c(C)cc5[nH]ncc45)c3C)C2)C1` (single isomer, unassigned) [Example 170a, 1-(6-(4-(5-chloro-6-methyl-1H-indazol-4-yl)-3-(4-(2-methoxyethyl)-2,2-dimethylpiperazin-1-yl)-5-methyl-1H-pyrazol-1-yl)-2-azaspiro[3.3]heptan-2-yl)prop-2-en-1-one], the IC50 is greater than 50000 nM.
The same measure for `C=CC(=O)N1CC2(CC(n3nc(N4CC[C@@H](CN5CCOCC5)CC4(C)C)c(-c4c(Cl)c(C)cc5[nH]nc(C)c45)c3C#N)C2)C1` (single isomer, unassigned) [Example 225b]: greater than 5000 nM.
Next, `C=CC(=O)N1CC2(CC(n3nc(N4CCN(C5CCOC5)CC45CCC5)c(-c4c(Cl)c(C)cc5[nH]ncc45)c3C)C2)C1` (single isomer, unassigned) [Example 132b, 1-(6-(4-(5-chloro-6-methyl-1H-indazol-4-yl)-5-methyl-3-(8-(tetrahydrofuran-3-yl)-5,8-diazaspiro[3.5]nonan-5-yl)-1H-pyrazol-1-yl)-2-azaspiro[3.3]heptan-2-yl)prop-2-en-1-one]: 4500 nM; `C=CC(=O)N1CC2(CC(n3nc(N4CCC5C(CC(=O)N5C)C4)c(-c4c(Cl)c(C)cc5[nH]ncc45)c3C)C2)C1` (single isomer, unassigned) [Example 38b, 5-(1-(2-acryloyl-2-azaspiro[3.3]heptan-6-yl)-4-(5-chloro-6-methyl-1H-indazol-4-yl)-5-methyl-1H-pyrazol-3-yl)-1-methyloctahydro-2H-pyrrolo[3,2-c]pyridin-2-one]: 89 nM.
The same measure for `C=CC(=O)N1CC2(CC(n3nc(N4CC[C@@H](CN5CCN(S(C)(=O)=O)CC5)CC4(C)C)c(-c4c(Cl)c(Cl)cc5[nH]ncc45)c3C)C2)C1` (single isomer, unassigned) [Example 298b]: 27 nM.
For `C=CC(=O)N1CC2(CC(n3nc(N4CC[C@@H](CN5CCN(C(C)=O)CC5)CC4(C)C)c(-c4c(Cl)c(Cl)cc5[nH]ncc45)c3C)C2)C1` (single isomer, unassigned) [Example 319b], the IC50 amounted to 9 nM.
Next, `C=CC(=O)N1CC2(CC(n3nc(N4CC[C@@H](CN5CC6OCCN(C)C6C5)CC4(C)C)c(-c4c(Cl)c(Cl)cc5[nH]ncc45)c3C)C2)C1` (single isomer, unassigned) [Example 259a, 1-(6-(4-(5,6-dichloro-1H-indazol-4-yl)-3-((R)-2,2-dimethyl-4-(((4aR*,7aS*)-4-methylhexahydropyrrolo[3,4-b][1,4]oxazin-6(2H)-yl)methyl)piperidin-1-yl)-5-methyl-1H-pyrazol-1-yl)-2-azaspiro[3.3]heptan-2-yl)prop-2-en-1-one]: 779 nM.
The same measure for `C=CC(=O)N1CC2(CC(n3nc(N4CCN(CC(C)(C)O)C[C@@]4(C)C(F)F)c(-c4c(Cl)c(C)cc5[nH]ncc45)c3C)C2)C1` (single isomer, unassigned) [Example 166a]: greater than 5000 nM; for `C=CC(=O)N1CC2(CC(n3nc(N4CC[C@@H](CN5CC6(C5)CS(=O)(=O)C6)CC4(C)C)c(-c4c(Cl)c(Cl)cc5[nH]ncc45)c3C)C2)C1` (single isomer, unassigned) [Example 248b]: 9 nM; for `C=CC(=O)N1CC2(CC(n3nc(N4CCN(C[C@@H]5COCCO5)CC45CCC5)c(-c4c(Cl)c(C)cc5[nH]ncc45)c3C)C2)C1` (single isomer, unassigned) [Example 169a]: greater than 5000 nM.
The same measure for `C=CC(=O)N1CC2(CC(n3nc(N4CCC(N5CC6COCC(C5)O6)CC4(C)C)c(-c4c(Cl)c(C)cc5[nH]ncc45)c3C)C2)C1` (single isomer, unassigned) [Example 119a, 1-(6-(3-(4-(3,9-dioxa-7-azabicyclo[3.3.1]nonan-7-yl)-2,2-dimethylpiperidin-1-yl)-4-(5-chloro-6-methyl-1H-indazol-4-yl)-5-methyl-1H-pyrazol-1-yl)-2-azaspiro[3.3]heptan-2-yl)prop-2-en-1-one]: 2800 nM; for `C=CC(=O)N1CC2(CC(n3nc(N4CC[C@@H](CN5CC6COCC(C5)O6)CC4(C)C)c(-c4c(Cl)c(Cl)cc5[nH]ncc45)c3C)C2)C1` (single isomer, unassigned) [Example 308b]: 10 nM.
As to `C=CC(=O)N1CC2(CC(n3nc(N4CCN(C[C@@H]5COCCO5)C[C@]4(C)CC)c(-c4c(Cl)cnc5[nH]ncc45)c3C)C2)C1` (single isomer, unassigned) [Example 81a], the IC50 is greater than 5000 nM.
Next, `C=CC(=O)N1CC2(CC(n3nc(N4CCC(C(=O)N(C)C)CC4(C)C)c(-c4c(Cl)c(C)cc5[nH]ncc45)c3C)C2)C1` (single isomer, unassigned) [Example 98b, 1-(1-(2-acryloyl-2-azaspiro[3.3]heptan-6-yl)-4-(5-chloro-6-methyl-1H-indazol-4-yl)-5-methyl-1H-pyrazol-3-yl)-N,N,2,2-tetramethylpiperidine-4-carboxamide]: 19 nM.
On to `C=CC(=O)N1CC2(CC(n3nc(N4CC[C@@H](CN5CC(O)C(OC)C5)CC4(C)C)c(-c4c(Cl)c(Cl)cc5[nH]ncc45)c3C)C2)C1` (single isomer, unassigned) [Example 273b, 1-(6-(4-(5,6-dichloro-1H-indazol-4-yl)-3-((R)-4-(((3S*,4S*)-3-hydroxy-4-methoxypyrrolidin-1-yl)methyl)-2,2-dimethylpiperidin-1-yl)-5-methyl-1H-pyrazol-1-yl)-2-azaspiro[3.3]heptan-2-yl)prop-2-en-1-one], for which the 50% inhibitory concentration (IC50) was found to be 10 nM.
The same measure for `C=CC(=O)N1CC2(CC(n3nc(N4CCC(CN5CCOCC5)CC4(C)COC)c(-c4c(Cl)c(Cl)cc5[nH]ncc45)c3C)C2)C1` (single isomer, unassigned) [Example 221b, 1-(6-(4-(5,6-dichloro-1H-indazol-4-yl)-3-(2-(methoxymethyl)-2-methyl-4-(morpholinomethyl)piperidin-1-yl)-5-methyl-1H-pyrazol-1-yl)-2-azaspiro[3.3]heptan-2-yl)prop-2-en-1-one]: 405 nM; for `C=CC(=O)N1CC2(CC(n3nc(N4CCC(C)(O)CC4(C)C)c(-c4c(Cl)c(C)cc5[nH]ncc45)c3C)C2)C1` (single isomer, unassigned) [Example 27a, 1-(6-(4-(5-chloro-6-methyl-1H-indazol-4-yl)-3-(4-hydroxy-2,2,4-trimethylpiperidin-1-yl)-5-methyl-1H-pyrazol-1-yl)-2-azaspiro[3.3]heptan-2-yl)prop-2-en-1-one]: 2700 nM.
The same measure for `C=CC(=O)N1CC2(CC(n3nc(N4CCN(C[C@@H]5COCCO5)C[C@]4(C)COC)c(-c4c(Cl)c(C)cc5[nH]ncc45)c3C)C2)C1` (single isomer, unassigned) [Example 181b]: 8 nM; for `C=CC(=O)N1CC2(CC(n3nc(N4CCN(C(=O)COC)CC45CCC5)c(-c4c(Cl)c(C)cc5[nH]ncc45)c3C)C2)C1` (single isomer, unassigned) [Example 123a, 1-(6-(4-(5-chloro-6-methyl-1H-indazol-4-yl)-3-(8-(2-methoxyacetyl)-5,8-diazaspiro[3.5]nonan-5-yl)-5-methyl-1H-pyrazol-1-yl)-2-azaspiro[3.3]heptan-2-yl)prop-2-en-1-one]: greater than 5000 nM.
Next, `C=CC(=O)N1CC2(CC(n3nc(N4CCN(C5COC5)CC45CCC5)c(-c4c(Cl)c(C)cc5[nH]ncc45)c3C)C2)C1` (single isomer, unassigned) [Example 54a, 1-(6-(4-(5-Chloro-6-methyl-1H-indazol-4-yl)-5-methyl-3-(8-(oxetan-3-yl)-5,8-diazaspiro[3.5]nonan-5-yl)-1H-pyrazol-1-yl)-2-azaspiro[3.3]heptan-2-yl)prop-2-en-1-one]: 17800 nM; `C=CC(=O)N1CC2(CC(n3nc(N4CCN(C(C)(C)CO)CC45CCC5)c(-c4c(Cl)c(C)cc5[nH]ncc45)c3C)C2)C1` (single isomer, unassigned) [Example 190a, 1-(6-(4-(5-Chloro-6-methyl-1H-indazol-4-yl)-3-(8-(1-hydroxy-2-methylpropan-2-yl)-5,8-diazaspiro[3.5]nonan-5-yl)-5-methyl-1H-pyrazol-1-yl)-2-azaspiro[3.3]heptan-2-yl)prop-2-en-1-one]: 4500 nM; `C=CC(=O)N1CC2(CC(n3nc(N4CCN(C5CCOCC5)C[C@]4(C)COC)c(-c4c(Cl)c(C)cc5[nH]ncc45)c3C)C2)C1` (single isomer, unassigned) [Example 149b]: 9 nM.
For `C=CC(=O)N1CC2(CC(n3nc(N4CCN(C(=O)OCCOC)CC45CCC5)c(-c4c(Cl)c(C)cc5[nH]ncc45)c3C)C2)C1` (single isomer, unassigned) [Example 122a, 2-methoxyethyl 5-(1-(2-acryloyl-2-azaspiro[3.3]heptan-6-yl)-4-(5-chloro-6-methyl-1H-indazol-4-yl)-5-methyl-1H-pyrazol-3-yl)-5,8-diazaspiro[3.5]nonane-8-carboxylate], the IC50 is greater than 5000 nM.
The same measure for `C=CC(=O)N1CC2(CC(n3nc(N4CCC(O)(CN5CCOCC5)CC4(C)C)c(-c4c(Cl)c(Cl)cc5[nH]ncc45)c3C)C2)C1` (single isomer, unassigned) [Example 238b, 1-(6-(4-(5,6-dichloro-1H-indazol-4-yl)-3-(4-hydroxy-2,2-dimethyl-4-(morpholinomethyl)piperidin-1-yl)-5-methyl-1H-pyrazol-1-yl)-2-azaspiro[3.3]heptan-2-yl)prop-2-en-1-one]: 503 nM; for `C=CC(=O)N1CC2(CC(n3nc(N4CCC(CN5C[C@@H]6OCCO[C@@H]6C5)CC4(C)C)c(-c4c(Cl)c(Cl)cc5[nH]ncc45)c3C)C2)C1` (single isomer, unassigned) [Example 231b]: 11 nM.
